Consider five compounds from publication doi:10.1101/2025.09.24.678246 (bioRxiv, 2025).

Values after ≈ are worked out from the molar mass of the structure shown. Values joined by “and” are separate entries in the source; they are usually repeats but may differ in a detail not shown here. Equal values may be shown once. Read-outs that look alike come from different tables or passages of the source.

The nature of one data set: in vivo. The note with it: female, CD-1, mouse; for Vd / clearance / half-life: iv; for AUC(0-inf) / bioavailability: po, 25 mg/kg.
Another data set addresses BioA (Mycobacterium tuberculosis, UniProt P9WQ81). Kind of data set: BioA inhibition assay (coupled BioA/BioD fluorescence displacement, IC50). In kind it is biochemical. The note with it: 50 nM BioA.
Data set [1] deals with Mtb H37Rv. Kind of data set: microbe, parasite or virus in culture. Format: cell-based, Mycobacterium tuberculosis. The note with it: biotin-free medium; for MIC50: Mycobacterium tuberculosis, H37RV.
Data set [2] concerns Mtb H37Rv. Kind of data set: C48 biotin deficient TB efficacy study. Format: in vivo, BALB/c mice. The note with it: 25mg/kg.
In the next data set the test system is M. bovis 0AF2122. Description: microbe, parasite or virus in culture. Format: cell-based. The note with it: Mycobacterium tuberculosis variant bovis.
The subject of another data set is M. africanum. Kind of data set: MIC screening against M. africanum. Format: cell-based. The note with it: Mycobacterium tuberculosis, MTBC.
Data set [3] relates to Mtb H37Rv. In kind it is in vivo, BALB/c mice. The note with it: for bacterial burden per mouse, Fig. 5B: 10 mg/kg.
For data set [4] the following is noted: p.o. 25 mg/kg, CD-1 mice.
The mark [5] stands for this setting: day 7 (values identical to Control: baseline).

Chain of BioA (P9WQ81 whole entry, looked up): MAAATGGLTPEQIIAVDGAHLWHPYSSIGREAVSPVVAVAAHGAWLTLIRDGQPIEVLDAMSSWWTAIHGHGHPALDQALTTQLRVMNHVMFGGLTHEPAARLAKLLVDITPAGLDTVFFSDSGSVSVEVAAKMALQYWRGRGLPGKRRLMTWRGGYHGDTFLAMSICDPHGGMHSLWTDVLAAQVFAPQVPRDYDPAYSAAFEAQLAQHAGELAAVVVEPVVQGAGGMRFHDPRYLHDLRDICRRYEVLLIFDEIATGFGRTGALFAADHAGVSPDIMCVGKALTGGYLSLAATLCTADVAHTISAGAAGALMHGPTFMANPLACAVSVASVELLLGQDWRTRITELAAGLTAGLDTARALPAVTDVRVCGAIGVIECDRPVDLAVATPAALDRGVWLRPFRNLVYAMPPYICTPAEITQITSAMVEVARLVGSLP

In “in vivo”, `O=C1CCc2cc(N3CCN(C(=O)c4ccc(F)c(Br)c4)CC3)ccc21` [C21] gave a Vd of 0.37 L/kg, a clearance of 5.3 mL/min/kg, a half-life of 49.2 min and an AUC(0-inf) of 108000 ng·h/mL. For the same compound, the bioavailability in the data set “in vivo” is > 100%. The IC50 on BioA came to 81 nM. Also, at BioA (C21 1.58114 nM), the activity worked out at 106% and the activity at 0.00158114 µM is 106%. Besides, at BioA (C21 5 nM), the activity was 98% and 96.4%; the activity at 0.005 µM was 102%. In addition, at BioA (C21 15.8114 nM), the activity was 91.7% and 90.1%; the activity at 0.0158114 µM was 91.3%. For the same compound, at BioA (C21 50 nM), the activity is 59.9% and 51.5%; the activity at 0.05 µM was 59.5%. In addition, on BioA (C21 158.114 nM), the activity was 31.6% and 29.9%; the activity at 0.158114 µM came out at 32%. Also, on BioA (C21 500 nM), the activity is 25% and the activity at 0.5 µM amounted to 25.1%. Moreover, on BioA (C21 1581.14 nM), the activity is 18.2% and 16.8%; the activity at 1.58114 µM was 19.4%. Also, at BioA (C21 5000 nM), the activity is 7.65% and 7.4%; the activity at 5 µM is 8.48%. Also, in the data set with Mtb H37Rv [1], the MIC50 amounted to 1.9 µM (≈ 0.793 µg/mL) and the “increase in potency against Mtb versus 6” value was 6 fold.
Regarding `NNC(=O)c1ccncc1` [INH, isoniazid, reference compound], the “bacterial burden per mouse, Fig. 5C” value with Mtb H37Rv [2] (setting [5]) is 360 and 1090 and 400 and 320 and 700 and 200; with Mtb H37Rv [2] (day 28) it was 1. The “bacterial burden per mouse, Fig. 5D (second organ, not given)” value in the data set on Mtb H37Rv [2] (setting [5]), with Mtb H37Rv [2] (day 21) and in the data set with Mtb H37Rv [2] (day 28) was 1 in each case.
On to `CC(=O)NC[C@H]1CN(c2ccc(N3CCOCC3)c(F)c2)C(=O)O1` [Linezolid, reference compound], for which the MIC with M. bovis 0AF2122 and against M. africanum was 1.56 µM (≈ 0.526 µg/mL) in each case.
For the compound `CO[C@H]1/C=C/O[C@@]2(C)Oc3c(C)c(O)c4c(O)c(c(/C=N/N5CCN(C)CC5)c(O)c4c3C2=O)NC(=O)/C(C)=C\C=C\[C@H](C)[C@H](O)[C@@H](C)[C@@H](O)[C@@H](C)[C@H](OC(C)=O)[C@@H]1C` [Rifampicin, rifampicin, reference compound], the “bacterial burden per mouse, Fig. 5B” value in the data set on Mtb H37Rv [3] (day 14 (values identical to Vehicle Control: baseline)) was 24500 and 14500 and 16500 and 43500 and 12750; in the data set with Mtb H37Rv [3] (day 28) it was 8250 and 7500 and 19750 and 6250 and 14250; with Mtb H37Rv [3] (day 42), 2875 and 750 and 950 and 2450 and 2025. The “spleen CFU” value in the data set with Mtb H37Rv [3] (Rifampicin 10mg/kg p.o., Day 42, standard acute model, BALB/c, per mouse) stood at 0 CFU.
In “in vivo”, `CC(=O)c1ccc(N2CCN(C(=O)c3ccc4c(c3)OCO4)CC2)cc1` [compound 6] gave a Vd of 0.54 L/kg, a clearance of 30.6 mL/min/kg, a half-life of 12 min and an AUC(0-inf) of 460 ng·h/mL. This compound also returned a bioavailability in the data set “in vivo” of 3.4%. The IC50 on BioA came to 110 nM. In addition, the MIC50 in the data set with Mtb H37Rv [1] is 12 µM (≈ 4.23 µg/mL). In data set [4] (0 h), this compound came in with a plasma concentration of 0. The plasma concentration in data set [4] (3 h, 25 mg/kg) was 32.3 and 18.2 and 24.6. The same compound registered a plasma concentration in data set [4] (24 h) of 1.

The Vd is a proportionality between amount in the body and measured concentration, not a real space. Read a high Vd as wide distribution into tissue. As a reminder, the clearance is the rate of elimination divided by the concentration. A word on the half-life: it is the time in which the quantity being followed falls by half. The AUC(0-inf) is total exposure, with the tail of the curve extrapolated. For orientation: bioavailability means the share of a dose that reaches the circulation, judged against a reference dose that is usually intravenous. Read a low bioavailability as poor availability. Broadly, the IC50 is the concentration needed to halve the response being measured.
